Source: patent US12349677B2, “Antimicrobial composition” (CONOPCO, INC., priority 2018, dated 2025)

Tested on: E. coli ATCC 10536
Assay: In-vitro antibacterial efficacy (bacteria remaining after 4 hours contact, plate count)
Format: cell-based
Settings: contact time 4 hours at 37° C.
Protocol: The following samples were tested for in-vitro antibacterial efficacy using the below mentioned protocol
Sodium phosphate buffer 10 mM for culture preparation pH 7.4
The test organism was subcultured from the glycerol stock (stored at −70° C.) onto a TSA slant and incubated at 37° C. for 18 to 24 hours. The slant was stored in a refrigerator for a maximum of two weeks after which a fresh slant was prepared.
The test organisms were streaked from TSA slants onto petri plates containing TSA and incubated at 37° C. for 21 to 22 hours before use.
The bacterial inoculums were prepared corresponding to 10^6 cells in 10 mM Sodium Phosphate Buffer from the above plate.
The OD of culture was adjusted to 0.8 for E. coli, to give 10^8 cells/ml. Once the bacterial inoculums corresponding to 10^8 cells is prepared in sodium phosphate buffer, it is serially diluted to 10^6 cells ([…] in 10 mM sodium phosphate buffer)
135 μl bacterial inoculums (from 10^6 CFU/ml) was taken for all the treatments in a reaction volume of 300 μl (in a microtiter plate/96 well plate).
15 μl of 100 mM buffer was taken for all controls and treatments so that the final conc. corresponds to ˜5 mM in all the reactions.
The respective compounds/actives to be tested were taken and made up to a volume of 300 μl with autoclaved distilled water.
Note: Each treatment is kept in duplicates.
The microtiter plate was incubated at 37° C. for a contact time of 4 hours and then plated on TSA after required serial dilutions in neutralizer D/E to study bacterial kill.
Plates were incubated overnight for E. coli
The colonies were counted to estimate the bacteria remaining and thereby the log kill.
Experiments similar to the ones carried out for thymol+THPE were carried out with carvacrol+THPE. The antibacterial efficacy was measured in vitro as detailed above for examples 1 and A-C.
Experiments similar to the ones carried out for thymol+THPE were carried out with eugenol+THPE. The antibacterial efficacy was measured in vitro as detailed above for examples 1 and A-C.

[1] = Table 5, eugenol/THPE series, culture control 6.23
[2] = Table 4, carvacrol/THPE series, culture control 6.41
[3] = Table 1, thymol/THPE series, culture control 6.36

C=CCc1ccc(O)c(OC)c1 [J, Eugenol]
Average of bacteria remaining [1]: 6.15 log cfu/ml

CC(O)CN(CCN(CC(C)O)CC(C)O)CC(C)O (stereo not shown) [K, tetrahydroxypropyl ethylenediamine]
Average of bacteria remaining [1]: 5.44 log cfu/ml

CC(O)CN(CCN(CC(C)O)CC(C)O)CC(C)O (stereo not shown) [G, tetrahydroxypropyl ethylenediamine]
Average of bacteria remaining [2]: 5.97 log cfu/ml

Cc1ccc(C(C)C)cc1O [F, carvacrol]
Average of bacteria remaining [2]: 6.12 log cfu/ml

CC(O)CN(CCN(CC(C)O)CC(C)O)CC(C)O (stereo not shown) [B, tetrahydroxypropyl ethylenediamine]
Average of bacteria remaining [3]: 5.98 log cfu/ml

CC(O)CN(CCN(CC(C)O)CC(C)O)CC(C)O (stereo not shown) [H, tetrahydroxypropyl ethylenediamine]
Average of bacteria remaining [2]: 5.45 log cfu/ml

Cc1ccc(C(C)C)c(O)c1 [C, thymol]
Average of bacteria remaining [3]: 6.26 log cfu/ml
